# Reference: the supplement of paper PMC10307832
# Compound: CC1CC(=O)N(C2=CN=C(N=C2N1C3CCCC3)NC4=C(C=C(C=C4)C(=O)NC5CCN(CC5)C)OC)C [NPK76-II-72-1] + N=C(N)NC(=N)NCCc1ccccc1 [Phenformin] (partner 250 µM)
# Assay: relative viability (nuclei count vs DMSO), 5 days (fraction); higher = more cells survive
# Details: first compound 0.01 µM
# Summary of the method: (§1)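 Lung cancer cell lines in 1536-well plates were dosed by pin tool the day after seeding, either with one drug alone or with a fixed anchor-drug dose plus five library-drug doses (not always all listed) in √10 steps. After 5 days, cells were fixed and their nuclei stained in one step (final 0.05% Triton X-100, 1% formaldehyde, 1 ug/ml Hoechst), then counted on 4× images. Relative viability is the nuclei count in treated wells divided by that in vehicle wells. Values are medians of duplicate plates.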
row,Cell Line,relative viability
1,NCI-H1437,0.312
2,NCI-H1755,0.605
3,NCI-H2023,0.43
4,HCC-15,0.456
5,NCI-H1793,0.3
6,PC-14,0.562
7,EKVX,0.221
8,LC-2-ad,0.531
9,NCI-H1944,0.197
10,NCI-H1975,0.398
11,RERF-LC-KJ,0.405
12,ABC-1,0.264
13,NCI-H358,0.324
14,NCI-H650,0.441
15,PC-3 [JPC-3],0.475

# Same assay, conditions: first compound 0.03162 µM
row,Cell Line,relative viability
1,NCI-H1437,0.288
2,NCI-H1755,0.634
3,NCI-H2023,0.422
4,HCC-15,0.564
5,NCI-H1793,0.387
6,PC-14,0.462
7,EKVX,0.237
8,LC-2-ad,0.607
9,NCI-H1944,0.197
10,NCI-H1975,0.424
11,RERF-LC-KJ,0.416
12,ABC-1,0.223
13,NCI-H358,0.382
14,NCI-H650,0.457
15,PC-3 [JPC-3],0.484

# Same assay, conditions: first compound 0.1 µM
row,Cell Line,relative viability
1,NCI-H1437,0.297
2,NCI-H1755,0.575
3,NCI-H2023,0.455
4,HCC-15,0.462
5,NCI-H1793,0.38
6,PC-14,0.585
7,EKVX,0.225
8,LC-2-ad,0.558
9,NCI-H1944,0.198
10,NCI-H1975,0.395
11,RERF-LC-KJ,0.425
12,ABC-1,0.202
13,NCI-H358,0.32
14,NCI-H650,0.454
15,PC-3 [JPC-3],0.487

# Same assay, conditions: first compound 0.3162 µM
row,Cell Line,relative viability
1,NCI-H1437,0.293
2,NCI-H1755,0.647
3,NCI-H2023,0.398
4,HCC-15,0.444
5,NCI-H1793,0.31
6,PC-14,0.585
7,EKVX,0.147
8,LC-2-ad,0.494
9,NCI-H1944,0.187
10,NCI-H1975,0.43
11,RERF-LC-KJ,0.388
12,ABC-1,0.258
13,NCI-H650,0.381
14,PC-3 [JPC-3],0.453

# Same assay, conditions: first compound 1 µM
row,Cell Line,relative viability
1,NCI-H1437,0.333
2,NCI-H1755,0.654
3,NCI-H2023,0.43
4,HCC-15,0.494
5,NCI-H1793,0.432
6,PC-14,0.628
7,EKVX,0.252
8,LC-2-ad,0.665
9,NCI-H1944,0.211
10,NCI-H1975,0.437
11,RERF-LC-KJ,0.52
12,ABC-1,0.28
13,NCI-H358,0.372
14,NCI-H650,0.486
15,PC-3 [JPC-3],0.472

# Compound: CC1CC(=O)N(C2=CN=C(N=C2N1C3CCCC3)NC4=C(C=C(C=C4)C(=O)NC5CCN(CC5)C)OC)C [NPK76-II-72-1] + COc1cccc2cc(-c3nc([C@H]4CC[C@H](C(=O)O)CC4)n4ncnc(N)c34)[nH]c12 [OSI-027] (partner 0.5 µM)
# Assay: as above
# Details: first compound 0.01 µM
# Summary of the method: as §1
row,Cell Line,relative viability
1,NCI-H1437,0.862
2,NCI-H1755,0.763
3,NCI-H2023,0.373
4,HCC-15,0.561
5,NCI-H1793,0.268
6,PC-14,0.778
7,EKVX,0.66
8,LC-2-ad,0.768
9,NCI-H1944,0.422
10,NCI-H1975,0.698
11,RERF-LC-KJ,0.63
12,ABC-1,0.422
13,NCI-H358,0.703
14,NCI-H650,0.512
15,PC-3 [JPC-3],0.664

# Same assay, conditions: first compound 0.03162 µM
row,Cell Line,relative viability
1,NCI-H1437,0.877
2,NCI-H1755,0.776
3,NCI-H2023,0.426
4,HCC-15,0.774
5,NCI-H1793,0.322
6,PC-14,0.935
7,EKVX,0.783
8,LC-2-ad,0.885
9,NCI-H1944,0.44
10,NCI-H1975,0.712
11,RERF-LC-KJ,0.636
12,ABC-1,0.418
13,NCI-H358,0.812
14,NCI-H650,0.565
15,PC-3 [JPC-3],0.742

# Same assay, conditions: first compound 0.1 µM
row,Cell Line,relative viability
1,NCI-H1437,0.871
2,NCI-H1755,0.749
3,NCI-H2023,0.412
4,HCC-15,0.683
5,NCI-H1793,0.258
6,PC-14,0.981
7,EKVX,0.501
8,LC-2-ad,0.826
9,NCI-H1944,0.364
10,NCI-H1975,0.753
11,RERF-LC-KJ,0.651
12,ABC-1,0.343
13,NCI-H358,1
14,NCI-H650,0.515
15,PC-3 [JPC-3],0.78

# Same assay, conditions: first compound 0.3162 µM
row,Cell Line,relative viability
1,NCI-H1437,0.843
2,NCI-H1755,0.717
3,NCI-H2023,0.415
4,HCC-15,0.579
5,NCI-H1793,0.27
6,PC-14,0.667
7,EKVX,0.649
8,LC-2-ad,0.791
9,NCI-H1944,0.369
10,NCI-H1975,0.72
11,RERF-LC-KJ,0.525
12,ABC-1,0.458
13,NCI-H650,0.49
14,PC-3 [JPC-3],0.711

# Same assay, conditions: first compound 1 µM
row,Cell Line,relative viability
1,NCI-H1437,0.995
2,NCI-H1755,0.768
3,NCI-H2023,0.454
4,HCC-15,0.78
5,NCI-H1793,0.311
6,PC-14,1.08
7,EKVX,0.821
8,LC-2-ad,0.954
9,NCI-H1944,0.541
10,NCI-H1975,0.753
11,RERF-LC-KJ,0.628
12,ABC-1,0.492
13,NCI-H358,0.916
14,NCI-H650,0.623
15,PC-3 [JPC-3],0.889

# Compound: CC1CC(=O)N(C2=CN=C(N=C2N1C3CCCC3)NC4=C(C=C(C=C4)C(=O)NC5CCN(CC5)C)OC)C [NPK76-II-72-1] + CC(=O)c1c(C)c2cnc(Nc3ccc(N4CCNCC4)cn3)nc2n(C2CCCC2)c1=O [Palbociclib] (partner 0.5 µM)
# Assay: as above
# Details: first compound 0.01 µM
# Summary of the method: as §1
row,Cell Line,relative viability
1,NCI-H1437,0.31
2,NCI-H1755,0.453
3,NCI-H2023,0.365
4,HCC-15,0.722
5,PC-14,0.514
6,EKVX,0.334
7,LC-2-ad,0.491
8,NCI-H1944,0.335
9,NCI-H1975,0.548
10,RERF-LC-KJ,0.906
11,ABC-1,0.522
12,NCI-H358,0.131
13,NCI-H650,0.332
14,PC-3 [JPC-3],0.562

# Same assay, conditions: first compound 0.03162 µM
row,Cell Line,relative viability
1,NCI-H1437,0.311
2,NCI-H1755,0.441
3,NCI-H2023,0.385
4,HCC-15,0.849
5,NCI-H1793,0.324
6,PC-14,0.593
7,EKVX,0.401
8,LC-2-ad,0.508
9,NCI-H1944,0.35
10,NCI-H1975,0.548
11,RERF-LC-KJ,1.12
12,ABC-1,0.646
13,NCI-H358,0.186
14,NCI-H650,0.366

# Same assay, conditions: first compound 0.1 µM
row,Cell Line,relative viability
1,NCI-H1437,0.292
2,NCI-H1755,0.464
3,NCI-H2023,0.343
4,HCC-15,0.705
5,NCI-H1793,0.352
6,PC-14,0.438
7,EKVX,0.368
8,LC-2-ad,0.537
9,NCI-H1944,0.305
10,NCI-H1975,0.593
11,RERF-LC-KJ,1.06
12,ABC-1,0.791
13,NCI-H358,0.165
14,NCI-H650,0.3
15,PC-3 [JPC-3],0.519

# Same assay, conditions: first compound 0.3162 µM
row,Cell Line,relative viability
1,NCI-H1437,0.272
2,NCI-H1755,0.453
3,NCI-H2023,0.341
4,HCC-15,0.694
5,NCI-H1793,0.256
6,PC-14,0.505
7,LC-2-ad,0.498
8,NCI-H1944,0.301
9,NCI-H1975,0.416
10,RERF-LC-KJ,1.08
11,ABC-1,0.511
12,NCI-H650,0.303
13,PC-3 [JPC-3],0.549

# Same assay, conditions: first compound 1 µM
row,Cell Line,relative viability
1,NCI-H1437,0.3
2,NCI-H1755,0.479
3,NCI-H2023,0.439
4,HCC-15,0.745
5,NCI-H1793,0.366
6,PC-14,0.545
7,EKVX,0.464
8,LC-2-ad,0.475
9,NCI-H1944,0.376
10,NCI-H1975,0.676
11,RERF-LC-KJ,1.18
12,ABC-1,0.672
13,NCI-H358,0.126
14,NCI-H650,0.356
15,PC-3 [JPC-3],0.597

# Compound: CC[C@@H]1C(=O)N(C)c2cnc(Nc3ccc(C(=O)NC4CCN(C)CC4)cc3OC)nc2N1C1CCCC1 [BI-2536] + N=C(N)NC(=N)NCCc1ccccc1 [Phenformin] (partner 250 µM)
# Assay: as above
# Details: first compound 0.01 µM
# Summary of the method: as §1
row,Cell Line,relative viability
1,NCI-H1437,0.289
2,NCI-H1755,0.603
3,NCI-H2023,0.406
4,HCC-15,0.474
5,NCI-H1793,0.369
6,PC-14,0.651
7,EKVX,0.242
8,LC-2-ad,0.609
9,NCI-H1944,0.206
10,NCI-H1975,0.394
11,RERF-LC-KJ,0.403
12,ABC-1,0.307
13,NCI-H358,0.363
14,NCI-H650,0.462
15,PC-3 [JPC-3],0.477

# Same assay, conditions: first compound 0.03162 µM
row,Cell Line,relative viability
1,NCI-H1437,0.23
2,NCI-H1755,0.578
3,NCI-H2023,0.408
4,HCC-15,0.485
5,NCI-H1793,0.197
6,PC-14,0.551
7,EKVX,0.224
8,LC-2-ad,0.545
9,NCI-H1944,0.243
10,NCI-H1975,0.355
11,RERF-LC-KJ,0.297
12,ABC-1,0.256
13,NCI-H358,0.172
14,NCI-H650,0.438
15,PC-3 [JPC-3],0.461

# Same assay, conditions: first compound 0.1 µM
row,Cell Line,relative viability
1,NCI-H1437,0.145
2,NCI-H1755,0.328
3,NCI-H2023,0.119
4,HCC-15,0.149
5,NCI-H1793,0.149
6,PC-14,0.224
7,EKVX,0.225
8,LC-2-ad,0.257
9,NCI-H1944,0.122
10,NCI-H1975,0.215
11,RERF-LC-KJ,0.216
12,ABC-1,0.222
13,NCI-H358,0.0663
14,NCI-H650,0.163
15,PC-3 [JPC-3],0.271

# Same assay, conditions: first compound 0.3162 µM
row,Cell Line,relative viability
1,NCI-H1437,0.143
2,NCI-H1755,0.237
3,NCI-H2023,0.0985
4,HCC-15,0.103
5,NCI-H1793,0.138
6,PC-14,0.0459
7,EKVX,0.242
8,LC-2-ad,0.203
9,NCI-H1944,0.0925
10,NCI-H1975,0.126
11,RERF-LC-KJ,0.211
12,ABC-1,0.196
13,NCI-H358,0.0665
14,NCI-H650,0.154
15,PC-3 [JPC-3],0.202

# Same assay, conditions: first compound 1 µM
row,Cell Line,relative viability
1,NCI-H1437,0.154
2,NCI-H1755,0.253
3,NCI-H2023,0.0823
4,HCC-15,0.108
5,NCI-H1793,0.139
6,PC-14,0.0271
7,EKVX,0.211
8,LC-2-ad,0.292
9,NCI-H1944,0.113
10,NCI-H1975,0.118
11,RERF-LC-KJ,0.224
12,ABC-1,0.191
13,NCI-H358,0.072
14,NCI-H650,0.14
15,PC-3 [JPC-3],0.176
